Measured values: US11078214B2, “Monocyclic thieno, pyrido, and pyrrolo pyrimidine compounds and methods of use and manufacture of same” (Duquesne University of the Holy Spirit, priority 2015, dated 2021)
Where two headings read alike, the source gives them in different places.

How the values were obtained:
[1] = test system: KB human tumor cells (RFC/FRα/PCFT); assay: Growth inhibition of KB human tumor cells; assay type: cell-based
Description: The experiments with the CHO sublines were extended to KB human nasopharyngeal carcinoma cells which express highly elevated FRα, along with RFC and PCFT.

[2] = test system: PC43-10 CHO cells (human RFC); assay: Growth inhibition of CHO subline PC43-10 expressing human RFC; assay type: cell-based, Chinese hamster
RT16 CHO cells (FRα) = assay: Growth inhibition of CHO subline RT16 expressing human FRα; assay type: cell-based, Chinese hamster
D4 CHO cells (FRβ) = assay: Growth inhibition of CHO subline D4 expressing FRβ; assay type: cell-based, Chinese hamster
MDA-MB-435 cancer cells = assay: Antiproliferative sulforhodamine B (SRB) assay in MDA-MB-435 cells; assay type: cell-based, human
A-10 cells = assay: Cellular microtubule depolymerization (loss of cellular microtubules) in A-10 cells; assay type: cell-based
SK-OV-3 = assay: Antiproliferative SRB assay, parental SK-OV-3; assay type: cell-based, human
SK-OV-3 MDR-1-6/6 = assay: cells; assay type: cell-based, human
HeLa = assay: Antiproliferative SRB assay, parental HeLa; assay type: cell-based, human
Description: (§1) A second clinically relevant mechanism of drug resistance to these microtubule agents is the expression of βIII isotype of tubulin. […] The WT βIII cell line was generated from HeLa cells transfected with the gene for/III-tubulin.

[3] = test system: tubulin (colchicine site); assay: Inhibition of [3H]colchicine binding to tubulin; details: 1 μM inhibitor
purified tubulin = assay: Inhibition of the assembly of purified tubulin; assay type: biochemical; details: Section V Table 3; read-out: Inhibition of tubulin assembly IC50 (μM) ± SD
cellular microtubules = assay: Cellular microtubule depolymerization (Section V); assay type: cell-based; details: Section V Table 2; bare values under μM head, EC50/IC50 ratio implies nM
hDHFR = hDHFR (Homo sapiens (Human), UniProt P00374); assay: Inhibition of recombinant hDHFR; assay type: biochemical; details: Section I Table 3; 37° C., 18 μM dihydrofolic acid; title says μM, head nM; read-out: Human DHFR
Chain of hDHFR (P00374 whole entry): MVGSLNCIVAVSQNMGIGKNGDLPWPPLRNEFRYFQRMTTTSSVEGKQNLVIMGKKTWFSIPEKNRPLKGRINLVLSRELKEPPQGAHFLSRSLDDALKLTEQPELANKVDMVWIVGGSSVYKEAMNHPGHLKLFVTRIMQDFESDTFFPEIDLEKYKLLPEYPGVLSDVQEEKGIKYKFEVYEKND

recombinant pjDHFR [4] = target: T1, recombinant pjDHFR (Pneumocystis jirovecii (Human pneumocystis pneumonia agent), UniProt Q9UUP5); details: Section I Table 3
recombinant pjDHFR [5] = target: T1, recombinant pjDHFR; details: Section I Table 1; cited from earlier work
WT βIII cell line = assay: Antiproliferative SRB assay, WT βIII (HeLa transfected with βIII-tubulin); assay type: cell-based; details: Homo sapiens
Description: as §1

[6] = test system: R2 CHO cells (transporter-null); assay: Growth inhibition of transporter-null R2 CHO cells; assay type: cell-based, Chinese hamster; details: Cricetulus griseus
[7] = test system: R2/PCFT4 CHO cells (PCFT); assay: Growth inhibition of CHO subline R2/PCFT4 expressing human PCFT; assay type: cell-based, Chinese hamster; details: Cricetulus griseus
[8] = Rattus norvegicus, A10, Section II Table 1, 50% loss of cellular microtubules, read-out: Microtubule depolymerization (A-10 cells) EC50 ± SD
[9] = Homo sapiens, Section III Table 1, read-out: KB (nM) RFC/FRα/PCFT IC50
[10] = Homo sapiens, Section VI Table 1, read-out: FRα/PCFT/RFC (nM) KB IC50
[11] = Homo sapiens, PC43-10, Section III Table 1, read-out: PC43-10 (nM) RFC IC50
[12] = Homo sapiens, PC43-10, Section VI Table 1, read-out: RFC (nM) PC43-10 IC50
[13] = Section III Table 1, read-out: R2 (nM) Null IC50
[14] = Section VI Table 1, read-out: R2 IC50
[15] = Cricetulus griseus, RT16, Section III Table 1, read-out: RT16 (nM) FRα IC50
[16] = Cricetulus griseus, RT16, Section VI Table 1, read-out: FRα (nM) R16 IC50
[17] = Cricetulus griseus, CHO, Section III Table 1, read-out: D4 (nM) FRβ IC50
[18] = Cricetulus griseus, CHO, Section VI Table 1, read-out: FRβ (nM) D4 IC50
[19] = R2/PCFT4, Section VI Table 1, read-out: PCFT (nM) R2/PCFT4 IC50
[20] = Section III Table 1, R2/PCFT4, read-out: PCFT4 (nM) PCFT IC50

Nc1nc2[nH]c(CCCc3ccc(C(=O)N[C@@H](CCC(=O)O)C(=O)O)cc3)cc2c(=O)[nH]1 [AGF17, reference compound]
IC50 ([1]; Section IV Table 1, +FA, read-out: KB (+FA) IC50): > 1000 nM
IC50 ([1]; Section IV Table 1, read-out: RFC/FRα/PCFT KB IC50): 1.8 nM
IC50 ([2]; Section IV Table 1, spread in parentheses, read-out: RFC PC43-10 IC50): 648 nM
IC50 (RT16 CHO cells (FRα); Section IV Table 1, +FA, read-out: FRα RT16 (+FA) IC50): > 1000 nM
IC50 (RT16 CHO cells (FRα); Section IV Table 1, read-out: FRα RT16 IC50): 3.2 nM
IC50 (D4 CHO cells (FRβ); Section IV Table 1, +FA, read-out: FRβ D4 (+FA) IC50): > 1000 nM
IC50 (D4 CHO cells (FRβ); Section IV Table 1, read-out: FRβ D4 IC50): 2.7 nM

COc1ccc(/C=C\c2cc(OC)c(OC)c(OC)c2)cc1O [CA4, Combretastatin A-4, reference compound]
IC50 (MDA-MB-435 cancer cells; Section II Table 1, SRB assay, read-out: MDA-MB-435 IC50 ± SD): 3.4 ± 0.6 nM
IC50 (MDA-MB-435 cancer cells; Section V Table 2, read-out: IC50 MDA-MB-435): 4.4 ± 0.46 nM
IC50 (MDA-MB-435 cancer cells; Section VIII Table 1, read-out: IC50 ± SD (MDA-MB-435) nM cancer cells): 3.4 ± 0.6 nM
EC50 (A-10 cells; Section II Table 1, nM, read-out: Microtubule depolymerization (A-10 cells) EC50): 13 nM
EC50 (A-10 cells; Section VIII Table 1, read-out: EC50 (nM) in A-10 cells (Loss of cellular microtubules)): 13 nM
IC50 (SK-OV-3 MDR-1-6/6; Pgp overexpressing cell line, SRB, n = 3, read-out: SK-OV-3 MDR-1-6/6 IC50 ± SD): 6.6 ± 1.3 nM
IC50 (HeLa; parental HeLa, read-out: HeLa IC50 ± SD): 4.7 ± 0.2 nM
Inhibition of colchicine binding % Inhibition ± SD [3]: 85 ± 3%
EC50 (cellular microtubules): 9.8 µM

Cc1nc(N)nc2ccc(Nc3cc(F)c(F)c(F)c3)nc12 [Compound A]
IC50 (hDHFR): 3.1 µM
Hu/Pj selectivity ratio (recombinant pjDHFR [4]): 3.5
IC50 (recombinant pjDHFR [4]; read-out: DHFR Pj, 37° C., 18 μM dihydrofolic acid, title says μM, head nM): 0.87 µM
Hu/Pj selectivity ratio (hDHFR/pjDHFR) (recombinant pjDHFR [5]): 3.5

COc1cc(NCc2ccc3nc(N)nc(N)c3c2C)cc(OC)c1OC [TMQ, trimetrexate]
Hu/Pj selectivity ratio (hDHFR/pjDHFR) (recombinant pjDHFR [5]): 0.1

COc1ccc(N(C)c2nc(C)nc3cc[nH]c23)cc1 [compound 1]
EC50 (A-10 cells; [8]): 5800 nM
EC50 (A-10 cells; Rattus norvegicus, A10, Section VIII Table 1, read-out: EC50 (nM) in A-10 cells (Loss of cellular microtubules)): 5800 nM
IC50 (SK-OV-3; Homo sapiens, SK-OV-3, parental cell line, SRB, n = 3, read-out: SK-OV-3 IC50 ± SD): 278 ± 19 nM
IC50 (HeLa; Homo sapiens, parental HeLa, read-out: HeLa IC50 ± SD): 270 ± 26 nM
IC50 (WT βIII cell line; HeLa transfected with βIII-tubulin, read-out: WT βIII IC50 ± SD): 186 ± 21 nM
IC50 [1, 9]: 1.9 nM
IC50 [1, 10]: 0.2 nM
IC50 [2, 11]: > 1000 nM
IC50 [2, 12]: 101 nM
IC50 [6, 13]: > 1000 nM
IC50 [6, 14]: 289 nM
IC50 (RT16 CHO cells (FRα); [15]): 6.3 nM
IC50 (RT16 CHO cells (FRα); [16]): 0.19 nM
IC50 (D4 CHO cells (FRβ); [17]): 10 nM
IC50 (D4 CHO cells (FRβ); [18]): 0.2 nM
IC50 [7, 19]: 3.64 nM
IC50 [7, 20]: 213 nM

COc1ccc(N(C)c2nc(C)nc3ccsc23)cc1 [compound 2]
IC50 (MDA-MB-435 cancer cells; Homo sapiens, MDA-MB-435, read-out: MDA-MB-435 IC50 ± SD (nM)): 198 ± 23 nM
EC50 (A-10 cells; Rattus norvegicus, A10, read-out: Microtubule depolymerization (A-10 cells) EC50 ± SD (μM)): 8100 nM
IC50 (SK-OV-3; Homo sapiens, SK-OV-3, read-out: SK-OV-3 IC50 ± SD (nM)): 253 ± 23 nM
IC50 (SK-OV-3 MDR-1-6/6; Homo sapiens, SK-OV-3, read-out: SK-OV-3 MDR-1-6/6 IC50 ± SD (nM)): 438 ± 58 nM
IC50 (HeLa; Homo sapiens, HeLa, read-out: HeLa IC50 ± SD (nM)): 186 ± 19 nM
IC50 (WT βIII cell line; HeLa, read-out: WT βIII IC50 ± SD (nM)): 152 ± 14 nM
IC50 ([1]; Homo sapiens, read-out: FRα/PCFT/RFC (nM) KB IC50): 1.13 nM
IC50 ([1]; Homo sapiens, read-out: KB (nM) RFC/FRα/PCFT IC50): 0.34 nM
IC50 ([2]; Homo sapiens, PC43-10, read-out: PC43-10 (nM) RFC IC50): > 1000 nM
IC50 ([2]; Homo sapiens, PC43-10, read-out: RFC (nM) PC43-10 IC50): > 1000 nM
IC50 ([6]; read-out: R2 (nM) Null IC50): > 1000 nM
IC50 ([6]; read-out: R2 IC50): > 1000 nM
IC50 (RT16 CHO cells (FRα); Cricetulus griseus, RT16, read-out: FRα (nM) R16 IC50): 1.72 nM
IC50 (RT16 CHO cells (FRα); Cricetulus griseus, RT16, read-out: RT16 (nM) FRα IC50): 1.27 nM
IC50 (D4 CHO cells (FRβ); Cricetulus griseus, CHO, read-out: D4 (nM) FRβ IC50): 0.52 nM
IC50 (D4 CHO cells (FRβ); Cricetulus griseus, CHO, read-out: FRβ (nM) D4 IC50): 2.36 nM
IC50 ([7]; R2/PCFT4, read-out: PCFT4 (nM) PCFT IC50): 57.6 nM
IC50 ([7]; R2/PCFT4, read-out: PCFT (nM) R2/PCFT4 IC50): 40 nM

CSc1ccc(Nc2nc(C)nc3ccsc23)cc1 [compound 3]
EC50 (A-10 cells; [8]): > 10000 nM
IC50 [1, 9]: 0.48 nM
IC50 [1, 10]: 674 nM
IC50 [2, 11]: > 1000 nM
IC50 [2, 12]: > 1000 nM
IC50 [6, 13]: > 1000 nM
IC50 [6, 14]: > 1000 nM
IC50 (RT16 CHO cells (FRα); [15]): 2.54 nM
IC50 (RT16 CHO cells (FRα); [16]): > 1000 nM
IC50 (D4 CHO cells (FRβ); [17]): 0.43 nM
IC50 (D4 CHO cells (FRβ); [18]): > 1000 nM
IC50 [7, 19]: > 1000 nM
IC50 [7, 20]: 41.5 nM
